The assay deals with rat mixed hippocampal cultures. Description: 3-NP neurotoxicity assay, MTT viability, rat mixed hippocampal cultures. The assay is classed as cell-based. The following applies: 1 h preincubation, test concentration (10 μM); for inhibition at 10 µM: Rattus norvegicus. On the procedure: For example, a cell viability assay can be used in a preliminary screen on a large series of compounds each of which is tested at a fixed concentration. In some embodiments, mixed hippocampal cell cultures are prepared as described in, e.g., Haughey et al. (1999), J Neurochem, 73(4):1363-1374, and Haughey et al (2004), J Neurosci, 24(1):257-268. Subsequently, the cultures are pretreated for one hour in the presence of a candidate neuroprotective agent and then incubated with a cytotoxic agent for about 18 hours. Examples of cytotoxic agents include, but are not limited to, oxidative stressors (e.g., 3-nitropropionic acid (3-NP) or H2O2), excitatory amino acids (e.g., kainate), or neurotoxic proteins (e.g., Hiv Tat, or Aβ peptides). […] The level of protection (“percent protection”) provided by the test compound at a given test concentration in vitro can be expressed as: […]
A variety of methods for determining cell viability may be used. In some embodiments, cell viability is assessed based on the “MTT” assay method described in Mosmann (1983), J Immunol Methods, 65(1-2):55-63, or a variant thereof. This assay is based on the ability of a mitochondrial dehydrogenase enzyme from viable cells to cleave the tetrazolium rings of the pale yellow MTT and form dark blue formazan crystals, which are trapped in cells and readily quantified by ELISA spectrophotometry.
We sought to evaluate the protective efficacy of a number of modified terpenoid compounds against the against many different neurotoxins, ranging from the chemotoxic 6-OHDA, NMDA, 3-nitropropionic acid (3-NP), and viral proteins such as Tat and gp120. Thus, we established an in vitro neuroprotection assay using rat mixed hippocampal cultures, in which we evaluated the protective efficacy of neuroprotective compounds disclosed herein. The oxidative stressor 3-NP was used to elicit toxicity in the rat hippocampal cultures to mimic the oxidative damage, reactive oxygen species production and ensuing neurodegeneration resulting from HIV infection. Another measure of neurotoxicity which results from HIV infection was evaluated by exposure of the hippocampal cultures to HIV-1 Tat (Li et al (2005), Neurotox Res, 8(1-2): 119-134).
Rat mixed hippocamal neuronal cultures were generated from freshly dissected rat hippocampi (embryonic day 18) in neurobasal media containing 5% fetal bovine serum and 2% B27 supplement. The cells were plated into 96 well plates at a density of 4×10^5 cells/mL and routinely used on days 11-14 following culturing. Cell viability was assessed with MTT [3-(4,5-dimethylthiazol-2-yl)-2,5-diphenyltetrazolium bromide] assay. The MTT assay is based on the ability of a mitochondrial dehydrogenase enzyme from viable cells to cleave the tetrazolium rings of the pale yellow MTT and form dark blue formazan crystals. See Mosmann (1983), J Immunol Methods, 65(1-2):55-63. These crystals are largely impermeable to cell membranes, and thus accumulate within healthy cells. The resultant formazan precipitates are solubilized with DMSO and read on a multiwell scanning spectrophotometer (ELISA reader). The number of surviving cells is directly proportional to the level of the formazan product created.
Mixed hippocampal cultures were incubated with 3-NP (0.5-10 mM) for 18 hours and then assessed for viability using an MTT assay.
Cultures were preincubated with GPI 1046 or Resveratrol for one hour prior to an 18 hour exposure to 3 mM 3-NP. […] The same neuroprotective compounds were evaluated for efficacy against HIV-1 Tat protein toxicity using the same 1 hour preincubation protocol.

Setting [1] is: Table 2, vs 3 mM 3-NP 18 h, read-out: % Protection.
[2] abbreviates: Table 3, 3 mM 3-NP 18 h, read-out: % Protection vs 3-NP.

SMILES strings stand for the structures. Read-outs that look alike come from different tables or passages of the source.

Turning to `CC(=O)O[C@@H]1CC2C(C)(C)C(=O)C3OC3[C@]2(C)C2CC[C@@]3(C)C(=CC(=O)O[C@@H]3c3ccoc3)[C@@]21C` (stereo partly drawn) [1 (2)alpha- EPOXYDEOXYDIHYDRO- GEDUNIN, 1 (2)alpha-EPOXYDEOXYDIHYDROGEDUNIN], the inhibition at 10 µM under setting [1] came out at 14%.

As for `CC1(C)C(=O)[C@@H]2O[C@@H]2[C@@]2(C)C1C[C@@H](O)[C@]1(C)C2CC[C@@]2(C)[C@H](c3ccoc3)OC(=O)C3OC321` (stereo partly drawn) [1,2alpha- EPOXYDEACET[…], 1,2alpha-EPOXYDEACETOXYDIHYDROGEDUNIN], the “% Protection” value (Table 2, vs 3 mM 3-NP 18 h) is 25%.

Regarding `CC1(C)C2CC(=O)[C@]3(C)C(CC[C@@]4(C)[C@H](c5ccoc5)OC(=O)C5OC543)[C@@]2(C)[C@@H](O)C[C@H]1O` (stereo partly shown) [1,3-DIDEACETYL-7-DEACETOXY-7-OXOKHIVORIN], the inhibition at 10 µM under setting [2] was 15%. Besides, the “% Protection” value (Table 2, vs 3 mM 3-NP 18 h) was 15%.

For the compound `CC(=O)O[C@@H]1CC2C(C)(C)[C@H](O)C[C@H](O)[C@]2(C)C2CC[C@]3(C)[C@@H](c4ccoc4)OC(=O)[C@H]4O[C@]43[C@@]21C` (stereo partly shown) [1,3-DIDEACETYLKHIVORIN], under setting [1], the inhibition at 10 µM was 129%.

Regarding `CC1(C)C2CC(=O)[C@]3(C)C(CC[C@@]4(C)[C@H](c5ccoc5)OC(=O)[C@H]5O[C@]543)[C@@]2(C)C(=O)C[C@H]1O` (stereo partly shown) [1,7-DIDEACETOXY-1,7-DIOXO-3-DEACETYLKHIVORIN], under setting [2], the inhibition at 10 µM is 15%. Further, under “Table 2, vs 3 mM 3-NP 18 h”, the “% Protection” value came out at 15%.

Regarding `CC(=O)OC1CC2C(C)(C)CCC(=O)[C@]2(C)C2CC[C@@]3(C)[C@H](c4ccoc4)OC(=O)C4OC43[C@]12C` (stereo partly shown) [2,3-DIHYDROISOGEDUNIN], the “% Protection” value (Table 2, vs 3 mM 3-NP 18 h) is on record as 44%.

Consider `CC(=O)O[C@H]1C[C@@H](O)C(C)(C)[C@@H]2C[C@@H](OC(C)=O)[C@]3(C)[C@H](CC[C@@]4(C)[C@@H](c5ccoc5)OC(=O)[C@H]5O[C@@]534)[C@@]12C` [3-DEACETYLKHIVORIN], for which the “% Protection vs 3-NP” value (Table 3, 3 mM 3-NP 18 h) stood at 7%.

As to `CC(=O)O[C@H]1CC[C@@]2(C)C(C[C@@H](OC(C)=O)[C@@]3(C)C4=CC(=O)O[C@@H](c5ccoc5)[C@]4(C)CCC23)C1(C)C` (stereo partly drawn) [3-DEOXO-3beta-ACETOXYDEOXYDIHYDROGEDUNIN], the inhibition at 10 µM under setting [1] amounted to 56%.

For the compound `CC(=O)O[C@@H]1CC2C(C)(C)[C@H](O)C=C[C@]2(C)C2CC[C@]3(C)C(=CC(=O)O[C@H]3c3ccoc3)[C@@]21C` (stereo partly drawn) [3-alpha- HYDROXYDEOXYGEDININ, 3-alpha-HYDROXYDEOXYGEDININ], the “% Protection” value (Table 2, vs 3 mM 3-NP 18 h) turned out to be 28%.

Consider `CC(=O)O[C@@H]1CC[C@@]2(C)C(C[C@@H](OC(C)=O)[C@@]3(C)C4=CC(=O)O[C@@H](c5ccoc5)[C@]4(C)CCC23)C1(C)C` (stereo partly drawn) [3alpha- ACETOXYDIHYDRODEOXY- GEDUNIN, 3alpha-ACETOXYDIHYDRODEOXYGEDUNIN], for which the inhibition at 10 µM under setting [1] came out at 151%.

As to `C=C1C2CC[C@]3(C)[C@@H](c4ccoc4)OC(=O)CC13O[C@H]1CC(O)C(C)(C)C(CC(=O)OC)[C@@]21C` (stereo partly drawn) [3alpha-HYDROXY-3-DEOXYANGOLENSIC ACID METHYL ESTER], the inhibition at 10 µM under setting [1] is 35%.

In the case of `CC(=O)O[C@H]1CC[C@@]2(C)C(C[C@H](OC(C)=O)[C@@]3(C)C4=CC(=O)OC(c5ccoc5)[C@]4(C)CCC23)C1(C)C` (stereo partly drawn) [3beta,7beta-DIACETOXYDEOXODEACETOXYDEOXYDIHYDROGEDUNIN], under setting [1], the inhibition at 10 µM is 61%.

For `CC(=O)O[C@H]1CC[C@]2(C)[C@H]3CC[C@@]4(C)[C@H](c5ccoc5)OC(=O)[C@H]5O[C@]54[C@]3(C)[C@H](OC(C)=O)C[C@H]2C1(C)C` [3beta- ACETOXYDEOXODIHYDRO- GEDUNIN, 3beta-ACETOXYDEOXODIHYDROGEDUNIN], the inhibition at 10 µM runs as follows: under setting [1], 39%; under setting [2], 39%.

`CC(=O)OC1CC2C(C)(C)[C@@H](O)CC[C@]2(C)C2CC[C@]3(C)[C@H](c4ccoc4)OC(=O)[C@H]4O[C@]43[C@]12C` (stereo partly drawn) [3beta- HYDROXYDEOXODIHYDRO- GEDUNIN, 3beta-HYDROXYDEOXODIHYDROGEDUNIN]: the inhibition at 10 µM under setting [1] is 82%.

In the case of `C=C1C2CC[C@@]3(C)[C@H](c4ccoc4)OC(=O)C[C@]13O[C@H]1C[C@@H](OC(C)=O)C(C)(C)[C@H](CC(=O)OC)[C@@]21C` [3beta-ACETOXYDEOXYANGOLENSIC ACID, METHYL ESTER], the inhibition at 10 µM under setting [1] worked out at 128%.

`CC1(C)C2CC(=O)[C@]3(C)C(CC[C@@]4(C)[C@H](c5ccoc5)OC(=O)[C@H]5O[C@]543)[C@@]2(C)C=C[C@@H]1O` (stereo partly drawn) [3beta-HYDROXYDEOXYDESACETOXY-7-OXOGEDUNIN]: under setting [1], the inhibition at 10 µM was found to be 30%.

For the compound `C=C1C2CC[C@@]3(C)[C@H](c4ccoc4)OC(=O)C[C@]13O[C@H]1CC(=O)C(C)(C)[C@H](C(O)C(=O)OC)[C@@]21C` (stereo partly shown) [6-HYDROXYANGOLENSIC ACID METHYL ESTER], the inhibition at 10 µM reads like this: under setting [1], 26%; under setting [2], 26%.

Consider `CC1(C)C(=O)C=C[C@@]2(C)C1CC(=O)[C@@]1(C)C3=CC(=O)O[C@@H](c4ccoc4)[C@]3(C)CCC12` (stereo partly shown) [7-DEACETOXY-7- OXODEOXYGEDUNIN, 7-DEACETOXY-7-OXODEOXYGEDUNIN], for which, under setting [1], the inhibition at 10 µM was determined as 24%.

`CC(=O)O[C@H]1C[C@@H](OC(C)=O)C(C)(C)C2CC(=O)[C@]3(C)C(CC[C@@]4(C)[C@H](c5ccoc5)OC(=O)[C@H]5O[C@]543)[C@]21C` (stereo partly shown) [7-DEACETOXY-7- OXOKHIVORIN, 7-DEACETOXY-7-OXOKHIVORIN]: the inhibition at 10 µM reads like this: under setting [1], 36%; under setting [2], 36%.

Take `COC(=O)[C@@H]1OC(=O)C2OC23[C@@]1(C)CCC1[C@]2(C)C(CC(=O)[C@]13C)C(C)(C)[C@H](OC(C)=O)C[C@@H]2OC(C)=O` (stereo partly shown) [7-DEACETOXY-7-OXOKHIVORINIC ACID, METHYL ESTER]: the “% Protection” value (Table 2, vs 3 mM 3-NP 18 h) worked out at 42%.

Consider `CC(=O)O[C@H]1C[C@@H](OC(C)=O)C(C)(C)C2C[C@@H](O)[C@]3(C)C(CC[C@@]4(C)[C@H](c5ccoc5)OC(=O)[C@H]5O[C@]543)[C@]21C` (stereo partly shown) [7-DEACETYLKHIVORIN], for which the inhibition at 10 µM under setting [2] turned out to be 32%. In addition, the “% Protection” value (Table 2, vs 3 mM 3-NP 18 h) was 32%.

For the compound `CC(=O)O[C@H]1C[C@@H](OC(C)=O)C(C)(C)C2C[C@H](OC(C)=O)[C@]3(C)C(CC[C@@]4(C)[C@H](c5ccoc5)OC(=O)[C@H]5O[C@]543)[C@]21C` (stereo partly shown) [7-EPIKHIVORIN], under setting [1], the inhibition at 10 µM worked out at 65%.

For `COC(=O)[C@@H]1OC(=O)C2OC23[C@@]1(C)CCC1[C@]2(C)C(C[C@H](O)[C@]13C)C(C)(C)[C@H](OC(C)=O)C[C@@H]2OC(C)=O` (stereo partly drawn) [7beta-HYDROXY-7-DESACETOXYKHIVORINIC ACID, METHYL ESTER], the “% Protection” value (Table 2, vs 3 mM 3-NP 18 h) came to 84%.

For the compound `COC(=O)C[C@H]1C(C)(C)C2(O)OC34CC2C(=O)[C@]1(C)C3CC[C@]1(C)C4=CC(=O)O[C@H]1c1ccoc1` (stereo partly drawn) [8beta-HYDROXYCARAPIN, 3,8-HEMIACETAL], the “% Protection vs 3-NP” value (Table 3, 3 mM 3-NP 18 h) is 9%.

As to `COC(=O)C[C@H]1C2(C)CC34OC5(C)O[C@@]6([C@H](OC(C)=O)C(OC(C)=O)[C@]7(C)C(/C(=C(/O)C(C)C)C(=O)O[C@H]7c7ccoc7)[C@@]6(O5)[C@H](OC(C)=O)[C@@]3(O)C2OC(=O)C(C)C)[C@]14C` (stereo partly shown) [BUSSEIN], under setting [2], the inhibition at 10 µM is 18%.

`COC(=O)C[C@H]1C(C)(C)C(=O)[C@@H]2CC3=C(CC[C@]4(C)C3=CC(=O)O[C@H]4c3ccoc3)[C@@]1(C)C2=O` [CARAPIN-8(9)-ENE]: for the setting “Table 3, 3 mM 3-NP 18 h”, the “% Protection vs 3-NP” value is reported as 38%.

For `COC(=O)C[C@H]1C(C)(C)C(=O)[C@@H]2CC3C4=CC(=O)O[C@@H](c5ccoc5)[C@]4(C)CC[C@@H]3[C@@]1(C)C2=O` (stereo partly shown) [CARAPIN], the inhibition at 10 µM under setting [2] worked out at 18%.

`CC1(C)C(=O)C=C[C@@]2(C)C1CC(=O)[C@]1(C)C2CC[C@@]2(C)[C@H](c3ccoc3)OC(=O)[C@H]3O[C@]321` (stereo partly shown) [DEACETOXY-7-OXOGEDUNIN]: the inhibition at 10 µM came out at 38% under setting [1] and 38% under setting [2].

`CC1(C)C(=O)C=C[C@@]2(C)C1C[C@@H](O)[C@]1(C)C2CC[C@@]2(C)[C@H](c3ccoc3)OC(=O)[C@H]3O[C@]321` (stereo partly shown) [DEACETYLGEDUNIN]: under setting [2], the inhibition at 10 µM was 19%. The “% Protection” value (Table 2, vs 3 mM 3-NP 18 h) is 19%.
